Test results: patent publication US9642361B2, “Method for changing the development pattern, increasing the growth and the accumulation of starch, changing the structure of starch and increasing the resistance to water stress in plants” (IDEN BIOTECHNOLOGY, S.L., priority 2010, dated 2017)

Tests used:
[1] = system: Arabidopsis thaliana plants; assay: Starch content in leaves of Arabidopsis plants cultured next to solutions of volatile compounds; format: in vivo; settings: for starch accumulation in leaves: 2 cubic centimeters of 5% aqueous solution in 500 cubic centimeter box, two days
Procedure: To that end, the plants were cultured in Petri dishes containing solid MS medium with 90 mM sucrose. The plants germinated and were grown for two weeks in growth chambers with a photoperiod of 16 h of light (300 μmol of photons s^−1 m^−2) and at a constant temperature of 24° C.
The Petri dishes containing completely developed plants were placed in 500 cubic centimeter grow boxes with the particularity that, instead of microbial cultures, […] were introduced in said boxes in each case: indol, DTT (dithiothreitol), NAA (1-naphthaleneacetic acid), β-mercaptoethanol, salicylic acid, jasmonic acid, cysteine, acetoin, ethanol, methanol, β-hydroxybutyrate, butanediol, propanoic acid, acetic acid, acetaldehyde, formic acid or butyric acid, without there being any physical contact between the plant and the solution. The ethylene was provided in the form of ethephon powders. The boxes were sealed and leaves were harvested after two days of incubation to analyze starch content. Leaves were harvested at the end of the light period. As a negative control, the Petri dishes containing completely developed plants were cultured for two days in sealed plastic boxes together with a Petri dish containing 2 cubic centimeters of water in the absence of any of the volatile compounds assayed.
Starch was measured using an amyloglucosidase-based test kit (Boehringer Mannheim, Germany).

[2] = system: leaves cut from Arabidopsis; assay: Starch accumulation in cut Arabidopsis leaves with transcription/translation inhibitors in presence of fungal volatiles; format: in vivo, Arabidopsis thaliana; settings: 50 μM cycloheximide or 200 μM cordycepin; after 2 hours of incubation
Procedure: The experiment of section 5.1 was repeated, using in this case leaves cut from Arabidopsis incubated in Petri dishes with solid MS medium supplemented with 90 mM sucrose and, where appropriate, with 50 micromoles (μM) of translation inhibitor cycloheximide (Sigma) and 200 micromoles (μM) of transcription inhibitor cordycepin (Sigma) (Fritz, C. C. et al., 1991: Proc. Natl. Acad. Sci. USA 88: 4458-4462; Hayashi, T. and Takagi, S., 2003; Plant Cell Physiol. 44: 1027-1036; Dhonukshe et al., 2006: Developmental Cell 10: 137-150). The dishes were deposited in 500 cubic centimeter boxes in which cultures of Alternaria alternata had previously been deposited.

detached potato leaves = assay: Starch content in detached potato leaves with added amino acids, with or without FVs; format: in vivo, Solanum tuberosum; settings: exogenously added amino acid, +FV, 2 days
Procedure: FIG. 19: Graph depicting the starch content (expressed as μmoles of glucose per gram of fresh weight) measured in potato plants cultured for 2 days in MS supplemented with 90 mM sucrose and the indicated concentrations of cysteine, glycine, serine and methionine in the absence (−FV) or in the presence (+FV) of volatiles emitted by A. alternata grown in solid MS medium supplemented with 90 mM sucrose.
Therefore, it was investigated whether plastidial cysteine provision impairments are directly involved in MIVOISAP by measuring the starch content in detached potato leaves cultured in the presence and in the absence of FVs emitted by Alternaria alternata, and in the presence of different concentrations of cysteine.

Row | SMILES | starch accumulation in leaves [1] | other results
1 | CC=O [acetaldehyde] | promote starch overaccumulation | –
2 | CC(=O)O [acetic acid] | promote starch overaccumulation | –
3 | CCCC(=O)O [butyric acid] | promote starch overaccumulation | –
4 | Nc1ncnc2c1ncn2[C@@H]1O[C@H](CO)C[C@H]1O [cordycepin] | – | starch accumulation in presence of fungal volatiles [2]: strongly inhibit starch accumulation
5 | C[C@@H]1C[C@@H]([C@H](O)CC2CC(=O)NC(=O)C2)C(=O)[C@@H](C)C1 [cycloheximide] | – | starch accumulation in presence of fungal volatiles [2]: strongly inhibit starch accumulation
6 | N[C@@H](CS)C(=O)O [cysteine] | – | MIVOISAP (starch content) in detached leaves (detached potato leaves): strongly suppressed
7 | O=CO [formic acid] | promote starch overaccumulation | dose dependence of the effect on starch accumulation ([1]; solutions at 1%, 2% or 5% (v/v)): dose-dependent
8 | CCC(=O)O [propanoic acid] | promote starch overaccumulation | –
